Laboratory results reported in patent publication US20220073554A1, “LINCOSAMIDE ANTIBIOTICS AND USES THEREOF” (President and Fellows of Harvard College, priority 2017, published 2022).
Values after ≈ are worked out from the molar mass of the structure shown. Read-outs that look alike come from different tables or passages of the source.

Assays:
Type in all cases: cell-based
S. pneumoniae ATCC 49619 = assay: MIC against S. pneumoniae ATCC 49619; conditions: Streptococcus pneumoniae, ATCC49619; S. pneumoniae ATCC 49619; read-out: MIC
[1] = tested on: S. aureus UNT-146, MP-620, TP 506 (ermA); assay: microbe, parasite or virus in culture; conditions: Staphylococcus aureus
[2] = tested on: S. pneumoniae UNT-038, MP-626, TP 160 (mefA); assay: MIC against S. pneumoniae UNT-038, MP-626, TP 160 (mefA); conditions: Streptococcus pneumoniae
E. faecalis UNT-047 VRE = assay: microbe, parasite or virus in culture; conditions: Enterococcus faecalis
[3] = tested on: K. pneumoniae IHMA 658692; KPC-2; assay: microbe, parasite or virus in culture; conditions: Klebsiella pneumoniae
[4] = tested on: S. aureus BAA-1556 (USA 300); assay: microbe, parasite or virus in culture; conditions: Staphylococcus aureus
[5] = tested on: S. pneumoniae TP 1537 (ermB + mefA); assay: MIC against S. pneumoniae TP 1537 (ermB + mefA); conditions: Streptococcus pneumoniae
[6] = tested on: S. pneumoniae TP 1579 (ermB + tet(M, O)); assay: MIC against S. pneumoniae TP 1579 (ermB + tet(M, O)); conditions: Streptococcus pneumoniae
S. aureus ATCC 29213 = assay: MIC against S. aureus ATCC 29213; conditions: Staphylococcus aureus, ATCC29213, S. aureus ATCC 29213; read-out: MIC
[7] = tested on: S. pyogenes UNT-014, MP-625 MacRes; assay: MIC against S. pyogenes UNT-014, MP-625 MacRes; conditions: Streptococcus pyogenes
P. aeruginosa ATCC 27853 = assay: MIC against P. aeruginosa ATCC 27853; conditions: Pseudomonas aeruginosa, ATCC27853
S. pyogenes ATCC 19615 = assay: MIC against S. pyogenes ATCC 19615; conditions: Streptococcus pyogenes, ATCC19615; S. pyogenes ATCC 19615; read-out: MIC
[8] = tested on: S. pneumoniae UNT-039, MP-627, TP1517 (mefA); assay: MIC against S. pneumoniae UNT-039, MP-627, TP1517 (mefA); conditions: Streptococcus pneumoniae
[9] = tested on: S. aureus UNT-120, MP-619, NR522 (USA 600, GISA); assay: microbe, parasite or virus in culture; conditions: Staphylococcus aureus, USA600
[10] = tested on: S. aureus UNT96, NRS710, MP-618 (USA100, Erythro > 8); assay: microbe, parasite or virus in culture; conditions: Staphylococcus aureus
K. pneumoniae ATCC 10031 = assay: MIC against K. pneumoniae ATCC 10031; conditions: Klebsiella pneumoniae, ATCC10031; K. pneumoniae ATCC 10031; read-out: MIC
H. influenzae ATCC 49247 = assay: MIC against H. influenzae ATCC 49247; conditions: Haemophilus influenzae, ATCC49247; H. influenzae ATCC 49247; read-out: MIC
E. coli GUEST131 (NDM-1) = assay: microbe, parasite or virus in culture; conditions: Escherichia coli
E. coli ATCC 15922 = assay: MIC against E. coli ATCC 15922; conditions: Escherichia coli, ATCC15922
E. coli MMX 0121 ΔTolC = assay: MIC against E. coli MMX 0121 ΔTolC; conditions: Escherichia coli
S. aureus BAA 977 iErmA = assay: MIC against S. aureus BAA 977 iErmA; conditions: Staphylococcus aureus, BAA977
C. difficile BAA 1805 = assay: MIC against C. difficile BAA 1805; conditions: Clostridioides difficile, BAA1805; C. difficile BAA 1805; read-out: MIC
[11] = tested on: S. pyogenes MMX 946 Macrolide-Resistant; assay: MIC against S. pyogenes MMX 946 Macrolide-Resistant; conditions: Streptococcus pyogenes
B. fragilis ATCC 25285 = assay: MIC against B. fragilis ATCC 25285; conditions: Bacteroides fragilis, ATCC25285; B. fragilis ATCC 25285; read-out: MIC
E. faecalis ATCC 29212 = assay: MIC against E. faecalis ATCC 29212; conditions: Enterococcus faecalis
K. pneumoniae UNT TEM-10 = assay: microbe, parasite or virus in culture; conditions: Klebsiella pneumoniae, UNTTEM10
[12] = tested on: E. faecalis MMX 847 Macrolide-Resistant; assay: MIC against E. faecalis MMX 847 Macrolide-Resistant; conditions: Enterococcus faecalis
[13] = tested on: E. coli MMX TolC parent strain; assay: MIC against E. coli MMX TolC parent strain; conditions: Escherichia coli
[14] = tested on: S. pneumoniae MMX 3031 cMefA; assay: MIC against S. pneumoniae MMX 3031 cMefA; conditions: Streptococcus pneumoniae, MMX3031CMEFA
[15] = tested on: P. aeruginosa MMX Mex parent strain; assay: MIC against P. aeruginosa MMX Mex parent strain; conditions: Pseudomonas aeruginosa
S. aureus MMX 3035 cErmA = assay: MIC against S. aureus MMX 3035 cErmA; conditions: Staphylococcus aureus, MMX3035CERMA
[16] = tested on: S. aureus MP-549 msr(a) USA 300; assay: MIC against S. aureus MP-549 msr(a) USA 300; conditions: Staphylococcus aureus, USA300, S. aureus MP-549 msr(a) USA 300

With `CSC1O[C@H]([C@H](NC(=O)[C@@H]2[C@@H]3OCCCC[C@H]3CN2C)[C@H](C)Cl)C(O)[C@@H](O)[C@H]1O` (some centres unmarked) [FSA-24040] the MIC (S. pneumoniae ATCC 49619) was no more than 0.0313 µg/mL, the MIC [1] was greater than 32 µg/mL and the MIC [2] was no more than 0.0313 µg/mL. The MIC (E. faecalis UNT-047 VRE) was greater than 32 µg/mL, the MIC [3] was greater than 32 µg/mL and the MIC [4] was greater than 32 µg/mL. The MIC [5] was greater than 32 µg/mL, the MIC [6] was no more than 0.0313 µg/mL and the MIC (S. aureus ATCC 29213) was no more than 0.0313 µg/mL. The MIC [7] was no more than 0.0313 µg/mL, the MIC (P. aeruginosa ATCC 27853) was greater than 32 µg/mL and the MIC (S. pyogenes ATCC 19615) was no more than 0.0313 µg/mL. The MIC [8] was no more than 0.0313 µg/mL, the MIC [9] was greater than 32 µg/mL and the MIC [10] was greater than 32 µg/mL. It also gave an MIC (K. pneumoniae ATCC 10031) of 8 µg/mL (≈ 17.7 µM), an MIC (H. influenzae ATCC 49247) of 8 µg/mL (≈ 17.7 µM) and an MIC (E. coli GUEST131 (NDM-1)) greater than 32 µg/mL. The MIC (E. coli ATCC 15922) was greater than 32 µg/mL.

In the case of `CSC1O[C@H]([C@H](NC(=O)[C@H]2NC[C@@H]3CC(F)(F)CCO[C@H]32)[C@H](C)Cl)C(O)[C@@H](O)[C@H]1O` (some centres unmarked) [FSA-24036], the MIC (S. pneumoniae ATCC 49619) was no more than 0.06 µg/mL, the MIC [1] was greater than 32 µg/mL and the MIC [2] was no more than 0.0313 µg/mL. It also gave an MIC (E. faecalis UNT-047 VRE) greater than 32 µg/mL, an MIC [3] greater than 32 µg/mL and an MIC [4] greater than 32 µg/mL. The MIC [5] was greater than 32 µg/mL, the MIC [6] was no more than 0.0313 µg/mL and the MIC (E. coli MMX 0121 ΔTolC) was 8 µg/mL (≈ 16.8 µM). It also gave an MIC [7] of no more than 0.0313 µg/mL, an MIC (S. aureus BAA 977 iErmA) of 0.5 µg/mL (≈ 1.05 µM) and an MIC (C. difficile BAA 1805) of 2 µg/mL (≈ 4.21 µM). It also gave an MIC ([11]; S. pyogenes MMX 946 Macrolide-Resistant (MacRes), read-out: MIC) of 4 µg/mL (≈ 8.42 µM), an MIC (P. aeruginosa ATCC 27853; P. aeruginosa ATCC 27853, read-out: MIC) greater than 64 µg/mL and an MIC (B. fragilis ATCC 25285) of 4 µg/mL (≈ 8.42 µM). It also gave an MIC (E. faecalis ATCC 29212; ATCC29212, read-out: MIC) of 4 µg/mL (≈ 8.42 µM), an MIC (S. pyogenes ATCC 19615) of no more than 0.0313 µg/mL and an MIC [8] of no more than 0.0313 µg/mL. It also gave an MIC [9] greater than 32 µg/mL, an MIC [10] greater than 32 µg/mL and an MIC (K. pneumoniae UNT TEM-10) greater than 32 µg/mL. The MIC ([12]; E. faecalis MMX 847 Macrolide-Resistant (MacRes), read-out: MIC) was greater than 64 µg/mL, the MIC ([13]; E. coli MMX TolC parent strain, read-out: MIC) was greater than 64 µg/mL and the MIC [14] was no more than 0.06 µg/mL. It also gave an MIC (H. influenzae ATCC 49247) of 4 µg/mL (≈ 8.42 µM), an MIC (E. coli GUEST131 (NDM-1)) greater than 32 µg/mL and an MIC (E. coli ATCC 15922; E. coli ATCC 15922, read-out: MIC) greater than 64 µg/mL. For the same molecule, the MIC ([15]; P. aeruginosa MMX Mex parent strain, read-out: MIC) was greater than 64 µg/mL and the MIC (S. aureus MMX 3035 cErmA; S. aureus MMX 3035 cErmA, read-out: MIC) was greater than 64 µg/mL.

`CSC1O[C@H]([C@H](NC(=O)[C@H]2NC[C@@H]3CC=CCO[C@H]32)[C@H](C)Cl)C(O)[C@@H](O)[C@H]1O` (some centres unmarked) [FSA-24035] gave an MIC (S. pneumoniae ATCC 49619) of no more than 0.06 µg/mL, an MIC [1] greater than 32 µg/mL and an MIC [2] of no more than 0.0313 µg/mL. The MIC (E. faecalis UNT-047 VRE) was greater than 32 µg/mL, the MIC [3] was greater than 32 µg/mL and the MIC [4] was greater than 32 µg/mL. It also gave an MIC ([5]; S. pneumoniae TP 1537 (ermB + mefA), read-out: MIC) of 32 µg/mL, an MIC [6] of no more than 0.0313 µg/mL and an MIC (E. coli MMX 0121 ΔTolC) of 4 µg/mL (≈ 9.15 µM). The MIC [7] was no more than 0.0313 µg/mL, the MIC (C. difficile BAA 1805) was 2 µg/mL (≈ 4.58 µM) and the MIC [11] was 16 µg/mL (≈ 36.6 µM). For the same molecule, the MIC (P. aeruginosa ATCC 27853) was greater than 64 µg/mL, the MIC (B. fragilis ATCC 25285) was 8 µg/mL (≈ 18.3 µM) and the MIC (E. faecalis ATCC 29212; ATCC29212) was 16 µg/mL (≈ 36.6 µM). The MIC (S. pyogenes ATCC 19615) was no more than 0.0313 µg/mL, the MIC [8] was no more than 0.0313 µg/mL and the MIC [9] was greater than 32 µg/mL. It also gave an MIC [10] greater than 32 µg/mL, an MIC (K. pneumoniae UNT TEM-10) greater than 32 µg/mL and an MIC [12] greater than 64 µg/mL. The MIC [13] was greater than 64 µg/mL, the MIC [14] was no more than 0.06 µg/mL and the MIC (H. influenzae ATCC 49247) was 1 µg/mL (≈ 2.29 µM). The MIC (E. coli GUEST131 (NDM-1)) was greater than 32 µg/mL, the MIC (E. coli ATCC 15922) was greater than 64 µg/mL and the MIC [16] was 0.5 µg/mL (≈ 1.14 µM). It also gave an MIC [15] greater than 64 µg/mL and an MIC (S. aureus MMX 3035 cErmA) greater than 64 µg/mL.
